Measured values as given in US8044213B2, “Thiazolyl-benzimidazoles” (Hoffmann-La Roche Inc., priority 2008, dated 2011).
Each block holds one molecule with its values, some of them ahead of it.

Target: T1, PLK1 (Homo sapiens, UniProt P53350)
T1 construct: Full-length, active GST-Plk1 was purified from Sf9 insect cells; GST (N); made in house; host or cells: Sf9 insect cells
Assay: Biochemical Characterization Assay B (peptide substrate, LABCHIP EZ Reader II)
Conditions: PLK1, peptide RRRAGALMDASFEEQ-CONH2, % conversion on LABCHIP EZ Reader II
Description: Compounds were serially diluted to 6400, 2133, 711, 237, 79, 26, 8.78, 2.93, 0.98 and 0.33 μM in 100% DMSO. Diluted compound was further diluted 20 fold with Kinase Assay Buffer (KAB). Peptide RRRAGALMDASFEEQ-CONH2 (MW 2090) was diluted to 1.2 μM with KAB and ATP was added to 400 μM. PLK1 stock, prepared as described above, was diluted to 3 μg protein/mL with KAB right before it was added to MATRIX 384-Well Polypropylene Black Plates to start the reaction. 20 μL of KAB diluted compounds (or 5% DMSO in KAB for Total and Blank), 20 μL of KAB diluted peptide with ATP and 40 μL of KAB diluted PLK1 solution (KAB without PLK 1 for Blanks) were transferred to each well of the polypropylene plates. The reaction mixtures were incubated at room temperature for 40 minutes. Reactions were stopped by addition of 10 uL Reaction Stopping Buffer (RSB) to each well. Plates were then read on LABCHIP EZ Reader II from Caliper Life Science.
The IC50 values for each compound were generated using an Excel template. The % conversion readings of Total and Blank were used as 0% and 100% inhibition. The percent inhibition values of reactions in the presence of compounds were calculated, and plotted against compound concentrations. All data were fitted into a Dose Response One Site model (4 parameter logistic model) as the following: (A+4B−A)/(1+((x/C)^13)))), with A and B as the bottom and top of the curve (highest and lowest inhibition), respectively, and C as IC50 and D as Hill Coefficient of the compound.

T1 sequence (P53350 whole entry): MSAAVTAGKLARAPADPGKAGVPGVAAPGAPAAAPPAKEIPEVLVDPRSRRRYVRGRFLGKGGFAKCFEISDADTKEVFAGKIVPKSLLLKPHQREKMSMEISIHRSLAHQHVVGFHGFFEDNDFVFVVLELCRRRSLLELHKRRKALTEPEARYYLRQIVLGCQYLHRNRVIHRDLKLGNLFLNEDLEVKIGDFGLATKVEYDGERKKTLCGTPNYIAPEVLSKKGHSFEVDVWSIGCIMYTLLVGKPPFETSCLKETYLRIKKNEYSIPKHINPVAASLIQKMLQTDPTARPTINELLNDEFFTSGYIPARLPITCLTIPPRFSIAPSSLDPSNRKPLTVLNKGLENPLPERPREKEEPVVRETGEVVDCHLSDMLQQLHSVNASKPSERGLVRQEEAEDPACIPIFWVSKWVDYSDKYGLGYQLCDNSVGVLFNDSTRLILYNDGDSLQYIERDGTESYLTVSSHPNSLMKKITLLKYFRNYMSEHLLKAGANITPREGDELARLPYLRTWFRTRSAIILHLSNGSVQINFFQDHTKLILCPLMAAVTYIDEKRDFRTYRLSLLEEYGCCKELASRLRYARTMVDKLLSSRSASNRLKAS

Compound: CN(C)CCN(C)Cc1ccc2ncn(-c3nc(-c4cccc(Cl)c4)c(C(N)=O)s3)c2c1 [Example 6, 4-(3-Chloro-phenyl)-2-(6-{[(2-dimethylamino-ethyl)-methyl-amino]-methyl}-benzoimidazol-1-yl)-thiazole-5-carboxylic acid amide]
- IC50: 500 nM

Compound: CC(C)(C)OC(=O)NC1CCN(Cc2ccc3ncn(-c4nc(-c5cccc(Cl)c5)c(C(N)=O)s4)c3c2)CC1 [Example 12]
- IC50: 666 nM

Compound: NC(=O)c1sc(-n2cnc3ccc(CN4CCC(N)CC4)cc32)nc1-c1cccc(Cl)c1 [Example 13, 2-[6-(4-Amino-piperidin-1-ylmethyl)-benzoimidazol-1-yl]-4-(3-chloro-phenyl)-thiazole-5-carboxylic acid amide]
- IC50: 37 nM

Compound: CN1CCC(C(=O)NC2CCN(Cc3ccc4ncn(-c5nc(-c6cccc(Cl)c6)c(C(N)=O)s5)c4c3)CC2)CC1 [Example 14, 1-Methyl-piperidine-4-carboxylic acid (1-{3-[5-carbamoyl-4-(3-chloro-phenyl)-thiazol-2-yl]3H-benzoimidazol-5-ylmethyl}-piperidin-4-yl)-amide]
- IC50: 1480 nM

Compound: CC(C)(C)OC(=O)NC(C)(C)C(=O)NC1CCN(Cc2ccc3ncn(-c4nc(-c5cccc(Cl)c5)c(C(N)=O)s4)c3c2)CC1 [Example 15, [1-(1-{3-[5-Carbamoyl-4-(3-chloro-phenyl)-thiazol-2-yl]-3H-benzoimidazol-5-ylmethyl}-piperidin-4-ylcarbamoyl)-1-methyl-ethyl]-carbamic acid tert-butyl ester]
- IC50: 5270 nM

Compound: CC(C)(N)C(=O)NC1CCN(Cc2ccc3ncn(-c4nc(-c5cccc(Cl)c5)c(C(N)=O)s4)c3c2)CC1 [Example 16, 2-{6-[4-(2-Amino-2-methyl-propionylamino)-piperidin-1-ylmethyl]-benzoimidazol-1-yl}-4-(3-chloro-phenyl)-thiazole-5-carboxylic acid amide]
- IC50: 1290 nM

Compound: CN1CCC(Oc2ccc3ncn(-c4nc(-c5cccc(Cl)c5)c(C(N)=O)s4)c3c2)CC1 [Example 22, 4-(3-Chloro-phenyl)-2-[6-(1-methyl-piperidin-4-yloxy)-benzoimidazol-1-yl]-thiazole-5-carboxylic acid amide]
- IC50: 18 nM

Compound: NC(=O)c1sc(-n2cnc3ccc(OCC4CCNCC4)cc32)nc1-c1cccc(Cl)c1 [Example 23, 4-(3-Chloro-phenyl)-2-[6-(piperidin-4-ylmethoxy)-benzoimidazol-1-yl]-thiazole-5-carboxylic acid amide]
- IC50: 17 nM

Compound: CN1CCC(COc2ccc3ncn(-c4nc(-c5cccc(Cl)c5)c(C(N)=O)s4)c3c2)CC1 [Example 24, 4-(3-Chloro-phenyl)-2-[6-(1-methyl-piperidin-4-ylmethoxy)-benzoimidazol-1-yl]-thiazole-5-carboxylic acid amide]
- IC50: 14 nM

Compound: NC(=O)c1sc(-n2cnc3ccc(OCCN4CCCCC4)cc32)nc1-c1cccc(Cl)c1 [Example 27, 4-(3-Chloro-phenyl)-2-[6-(2-piperidin-1-yl-ethoxy)-benzoimidazol-1-yl]-thiazole-5-carboxylic acid amide]
- IC50: 264 nM

Compound: CN1CCN(CCOc2ccc3ncn(-c4nc(-c5cccc(Cl)c5)c(C(N)=O)s4)c3c2)CC1 [Example 28, 4-(3-Chloro-phenyl)-2-{6-[2-(4-methyl-piperazin-1-yl)-ethoxy]-benzoimidazol-1-yl}-thiazole-5-carboxylic acid amide]
- IC50: 105 nM

Compound: CN(C)CCOc1ccc2ncn(-c3nc(-c4cccc(Cl)c4)c(C(N)=O)s3)c2c1 [Example 29, 4-(3-Chloro-phenyl)-2-[6-(2-dimethylamino-ethoxy)-benzoimidazol-1-yl]-thiazole-5-carboxylic acid amide]
- IC50: 356 nM

Compound: NC(=O)c1sc(-n2cnc3ccc(OCCCN4CCCCC4)cc32)nc1-c1cccc(Cl)c1 [Example 32, 4-(3-Chloro-phenyl)-2-[6-(3-piperidin-1-yl-propoxy)-benzoimidazol-1-yl]-thiazole-5-carboxylic acid amide]
- IC50: 80 nM

Compound: NC(=O)c1sc(-n2cnc3ccc(OCCCN4CCCC4)cc32)nc1-c1cccc(Cl)c1 [Example 34, 4-(3-Chloro-phenyl)-2-[6-(3-pyrrolidin-1-yl-propoxy)-benzoimidazol-1-yl]-thiazole-5-carboxylic acid amide]
- IC50: 50 nM

Compound: CN1CCN(CCCCOc2ccc3ncn(-c4nc(-c5cccc(Cl)c5)c(C(N)=O)s4)c3c2)CC1 [Example 37, 4-(3-Chloro-phenyl)-2-{6-[4-(4-methyl-piperazin-1-yl)-butoxy]-benzoimidazol-1-yl}-thiazole-5-carboxylic acid amide]
- IC50: 27 nM

Compound: NC(=O)c1sc(-n2cnc3ccc(OCCCCN4CCOCC4)cc32)nc1-c1cccc(Cl)c1 [Example 38, 4-(3-Chloro-phenyl)-2-[6-(4-morpholin-4-yl-butoxy)-benzoimidazol-1-yl]-thiazole-5-carboxylic acid amide]
- IC50: 11 nM

Second part, the molecule after the results:

- IC50: 68 nM
Compound: NC(=O)c1sc(-n2cnc3ccc(OCCCN(CCO)CCO)cc32)nc1-c1cccc(Cl)c1 [Example 35, 2-(6-{3-[Bis-(2-hydroxy-ethyl)-amino]-propoxy}-benzoimidazol-1-yl)-4-(3-chloro-phenyl)-thiazole-5-carboxylic acid amide]

- IC50: 80 nM
Compound: NC(=O)c1sc(-n2cnc3ccc(OCCCNCCO)cc32)nc1-c1cccc(Cl)c1 [Example 36, 4-(3-Chloro-phenyl)-2-{6-[3-(2-hydroxy-ethylamino)-propoxy]-benzoimidazol-1-yl}-thiazole-5-carboxylic acid amide]

- IC50: 50 nM
Compound: CN1CCN(CC(O)COc2ccc3ncn(-c4nc(-c5cccc(Cl)c5)c(C(N)=O)s4)c3c2)CC1 (stereo not drawn) [Example 39, 4-(3-Chloro-phenyl)-2-{6-[2-hydroxy-3-(4-methyl-piperazin-1-yl)-propoxy]-benzoimidazol-1-yl}-thiazole-5-carboxylic acid amide]

- IC50: 13 nM
Compound: NC(=O)c1sc(-n2cnc3ccc(OCC(O)CN4CCOCC4)cc32)nc1-c1cccc(Cl)c1 (stereo not drawn) [Example 40, 4-(3-Chloro-phenyl)-2-[6-(2-hydroxy-3-morpholin-4-yl-propoxy)-benzoimidazol-1-yl]-thiazole-5-carboxylic acid amide]

- IC50: 16 nM
Compound: NC(=O)c1sc(-n2cnc3ccc(CCCCN4CCOCC4)cc32)nc1-c1cccc(Cl)c1 [Example 41, 4-(3-Chloro-phenyl)-2-[6-(4-morpholin-4-yl-butyl)-benzoimidazol-1-yl]-thiazole-5-carboxylic acid amide]

- IC50: 8 nM
Compound: COc1cc2ncn(-c3nc(-c4cccc(Cl)c4)c(C(N)=O)s3)c2cc1OCCCN1CCOCC1 [Example 43, 4-(3-Chloro-phenyl)-2-[5-methoxy-6-(3-morpholin-4-yl-propoxy)-benzoimidazol-1-yl]-thiazole-5-carboxylic acid amide]

- IC50: 61 nM
Compound: COc1cc2ncn(-c3nc(-c4cccc(Cl)c4)c(C(N)=O)s3)c2cc1OCCN1CCN(C)CC1 [Example 44, 4-(3-Chloro-phenyl)-2-{5-methoxy-6-[2-(4-methyl-piperazin-1-yl)-ethoxy]-benzoimidazol-1-yl}-thiazole-5-carboxylic acid amide]

- IC50: 26 nM
Compound: COc1cc2ncn(-c3nc(-c4cccc(Cl)c4)c(C(N)=O)s3)c2cc1OCCN1CCOCC1 [Example 45, 4-(3-Chloro-phenyl)-2-[5-methoxy-6-(2-morpholin-4-yl-ethoxy)-benzoimidazol-1-yl]-thiazole-5-carboxylic acid amide]
